From US8859580B2 (Boehringer Ingelheim International GmbH, priority 2007, dated 2014)

Biological target: T1, 11β-HSD1 (Homo sapiens, UniProt P28845)
T1 construct: detecting cortisol generated from cortisterone by human liver microsomes; from tissue; host or cells: human liver microsomes
Experiment: In vitro inhibition of 11β-HSD1, HTRF detection of cortisol generated from cortisone by human liver microsomes
Format: biochemical
Details: 11β-HSD IC50 (nM), 1 hour at 37° C., pH 6.0, NADPH 200 μM, cortisone 80 nM, inhibition relative to carbenoxolone signal
In short: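 Cortisol formed from cortisone by human liver microsomes quantified by competitive HTRF immunoassay (XL665-cortisol, Eu-cryptate anti-cortisol antibody), 2 h detection, Em665/Em615 ratio converted via cortisol calibration curve. Percent inhibition relative to carbenoxolone signal; IC50 from curves.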

T1 sequence (P28845 whole entry): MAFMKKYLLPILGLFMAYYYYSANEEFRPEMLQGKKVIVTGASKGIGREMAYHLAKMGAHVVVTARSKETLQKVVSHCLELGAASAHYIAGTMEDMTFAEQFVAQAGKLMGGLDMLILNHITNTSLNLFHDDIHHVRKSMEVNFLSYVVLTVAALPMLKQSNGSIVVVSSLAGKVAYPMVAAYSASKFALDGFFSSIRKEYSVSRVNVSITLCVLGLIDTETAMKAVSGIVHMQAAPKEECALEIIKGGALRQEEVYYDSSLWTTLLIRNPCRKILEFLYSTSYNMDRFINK

SMILES	IC50 [nM]
COc1ccc2c(c1)C[C@H]1N(C(=O)c3ccc4nc[nH]c4c3)CC[C@]2(C)C1(C)C [Example 74, (3H-Benzoimidazol-5-yl)-[(2R,6S)-9-methoxy-6,11,11-trimethyl-1,2,5,6-tetrahydro-4H-2,6-methano-benzo[d]azocin-3-yl]-methanone]	69
CC1(C)[C@H]2Cc3cc4nn[nH]c4cc3[C@]1(C)CCN2C(=O)c1ccc2nc[nH]c2c1 [Example 265, (3H-Benzoimidazol-5-yl)-[(6R,10S)-5,6,7,8,9,10-hexahydro-10,12,12-trimethyl-6,10-methano-1H-triazolo[5,4-i][3]benzazocin-7-yl]-methanone]	22
CC12CCN(C(=O)c3ccc4nc[nH]c4c3)C(Cc3cc(F)ccc31)C2(C)C (stereo not drawn) [Example 145, (3H-Benzoimidazol-5-yl)-(9-fluoro-6,11,11-trimethyl-1,2,5,6-tetrahydro-4H-2,6-methano-benzo[d]azocin-3-yl)-methanone]	108
CC1(C)C(=O)Nc2ccc(C(=O)N3CC[C@@]4(C)c5ccccc5C[C@@H]3C4(C)C)cc21 [Example 308, 3,3-Dimethyl-5-[(2R,6S)-6,11,11-trimethyl-1,2,5,6-tetrahydro-4H-2,6-methano-benzo[d]azocine-3-carbonyl]-1,3-dihydro-indol-2-one]	210
CC1(C)[C@H]2Cc3c(O)cccc3[C@]1(C)CCN2C(=O)c1cccc(C#N)c1 [Example 10, 3-[(2R,6S)-10-Hydroxy-6,11,11-trimethyl-1,2,5,6-tetrahydro-4H-2,6-methano-benzo[d]azocine-3-carbonyl]-benzonitrile]	1780
CC1(C)[C@H]2Cc3c(O)cccc3[C@]1(C)CCN2C(=O)c1ccc(C(=O)N2CCCC2)cc1 [Example 133, [(2R,6S)-10-Hydroxy-6,11,11-trimethyl-1,2,5,6-tetrahydro-4H-2,6-methano-benzo[d]azocin-3-yl]-[4-(pyrrolidine-1-carbonyl)-phenyl]-methanone]	941
COc1c(F)cc(C(=O)N2CC[C@@]3(C)c4ccccc4C[C@@H]2C3(C)C)cc1F [Example 331, (3,5-Difluoro-4-methoxy-phenyl)-[(2R,6S)-6,11,11-trimethyl-1,2,5,6-tetrahydro-4H-2,6-methano-benzo[d]azocin-3-yl]-methanone]	439
Cn1cnc2cc(C(=O)N3CC[C@@]4(C)c5cccc(O)c5C[C@@H]3C4(C)C)ccc21 [Example 19, [(2R,6S)-10-Hydroxy-6,11,11-trimethyl-1,2,5,6-tetrahydro-4H-2,6-methano-benzo[d]azocin-3-yl]-(1-methyl-1H-benzoimidazol-5-yl)-methanone]	658
CC(C)(O)c1cccc(C(=O)N2CC[C@@]3(C)c4ccccc4C[C@@H]2C3(C)C)c1 [Example 317, [3-(1-Hydroxy-1-methyl-ethyl)-phenyl]-[(2R,6S)-6,11,11-trimethyl-1,2,5,6-tetrahydro-4H-2,6-methano-benzo[d]azocin-3-yl]-methanone]	217
CC1(C)[C@H]2Cc3c(O)cccc3[C@]1(C)CCN2C(=O)c1n[nH]c2c1CCCC2 [Example 219, [(2R,6S)-10-Hydroxy-6,11,11-trimethyl-1,2,5,6-tetrahydro-4H-2,6-methano-benzo[d]azocin-3-yl]-(4,5,6,7-tetrahydro-1H-indazol-3-yl)-methanone]	160
CC1(C)[C@H]2Cc3c(O)cccc3[C@]1(C)CCN2C(=O)c1cccc(C(N)=O)c1 [Example 41, 3-[(2R,6S)-10-Hydroxy-6,11,11-trimethyl-1,2,5,6-tetrahydro-4H-2,6-methano-benzo[d]azocine-3-carbonyl]-benzamide]	589
COc1ccc2c(c1)C[C@@H]1N(C(=O)c3ccc4nc[nH]c4c3)CC[C@@]2(C)C1(C)C [Example 147, (3H-Benzoimidazol-5-yl)-[(2S,6R)-9-methoxy-6,11,11-trimethyl-1,2,5,6-tetrahydro-4H-2,6-methano-benzo[d]azocin-3-yl]-methanone]	1010
CC12CCN(C(=O)c3ccc4nc[nH]c4c3)C(Cc3ccc(O)cc31)C2 (stereo not drawn) [Example 51, (3H-Benzoimidazol-5-yl)-(8-hydroxy-6-methyl-1,2,5,6-tetrahydro-4H-2,6-methano-benzo[d]azocin-3-yl)-methanone]	629
C[C@H]1[C@H]2Cc3ccc(O)cc3[C@]1(C)CCN2C(=O)c1ccco1 [Example 113, Furan-2-yl-[(2R,6R,11R)-8-hydroxy-6,11-dimethyl-1,2,5,6-tetrahydro-4H-2,6-methano-benzo[d]azocin-3-yl]-methanone]	3630
CC(=O)Nc1ccc2c(c1)CC1N(C(=O)c3ccc4nc[nH]c4c3)CCC2(C)C1(C)C (stereo not drawn) [Example 179, N-[3-(3H-Benzoimidazole-5-carbonyl)-6,11,11-trimethyl-1,2,3,4,5,6-hexahydro-2,6-methano-benzo[d]azocin-9-yl]-acetamide]	199
Cc1cnc2cc3c(cc2n1)[C@]1(C)CCN(C(=O)c2ccc4nc[nH]c4c2)[C@H](C3)C1(C)C [Example 255, (3H-Benzoimidazol-5-yl)-[(7R,11S)-6,7,8,9,10,11-hexahydro-2,11,13,13-tetramethyl-7,11-methano-pyrazino[2,3-i][3]benzazocin-8-yl]-methanone]	742
CC12CCN(C(=O)c3ccc4nc[nH]c4c3)C(Cc3cc4c(cc31)OCO4)C2(C)C (stereo not drawn) [Example 143, (8,9-Methylenedioxy-6,11,11-trimethyl-1,2,5,6-tetrahydro-4H-2,6-methano-benzo[d]azocin-3-yl)-(3H-benzoimidazol-5-yl)-methanone]	123
C#Cc1cc(C(=O)N2CC[C@@]3(C)c4cccc(O)c4C[C@@H]2C3(C)C)ccc1C(=O)N1CCCC1 [Example 32, [3-Ethynyl-4-(pyrrolidine-1-carbonyl)-phenyl]-[(2R,6S)-10-hydroxy-6,11,11-trimethyl-1,2,5,6-tetrahydro-4H-2,6-methano-benzo[d]azocin-3-yl]-methanone]	915
COc1ccc2c(c1)[C@]1(C)CCN(C(=O)c3ccccc3[N+](=O)[O-])[C@H](C2)[C@@H]1C [Example 108, [(2R,6R,11R)-8-Methoxy-6,11-dimethyl-1,2,5,6-tetrahydro-4H-2,6-methano-benzo[d]azocin-3-yl]-(2-nitro-phenyl)-methanone]	140
COc1ccc2c(c1[N+](=O)[O-])[C@]1(C)CCN(C(=O)c3ccc4nc[nH]c4c3)[C@H](C2)[C@H]1C [Example 261, (3H-Benzoimidazol-5-yl)-[(2R,6R,11S)-8-methoxy-6,11-dimethyl-7-nitro-1,2,5,6-tetrahydro-4H-2,6-methano-benzo[d]azocin-3-yl]-methanone]	47
CC(O)c1ccc2c(c1)[C@]1(C)CCN(C(=O)c3ccc4nc[nH]c4c3)[C@H](C2)C1(C)C (stereo partly drawn) [Example 211, (3H-Benzoimidazol-5-yl)-[(2R,6S)-8-(1-hydroxy-ethyl)-6,11,11-trimethyl-1,2,5,6-tetrahydro-4H-2,6-methano-benzo[d]azocin-3-yl]-methanone]	31
COc1ccc2c(c1N)[C@]1(C)CCN(C(=O)c3ccc4nc[nH]c4c3)[C@H](C2)[C@H]1C [Example 267, (3H-Benzoimidazol-5-yl)-[(2R,6R,11S)-7-amino-8-methoxy-6,11-dimethyl-1,2,5,6-tetrahydro-4H-2,6-methano-benzo[d]azocin-3-yl]-methanone]	66
COC1CCN(Cc2ccc(C(=O)N3CC[C@@]4(C)c5cccc(O)c5C[C@@H]3C4(C)C)cc2)CC1 [Example 189, [(2R,6S)-10-Hydroxy-6,11,11-trimethyl-1,2,5,6-tetrahydro-4H-2,6-methano-benzo[d]azocin-3-yl]-[4-(4-methoxy-piperidin-1-ylmethyl)-phenyl]-methanone]	2270
COc1cccc2[nH]cc(C(=O)N3CC[C@@]4(C)c5cccc(O)c5C[C@@H]3C4(C)C)c12 [Example 195, [(2R,6S)-10-Hydroxy-6,11,11-trimethyl-1,2,5,6-tetrahydro-4H-2,6-methano-benzo[d]azocin-3-yl]-(4-methoxy-1H-indol-3-yl)-methanone]	2480
